Laboratory results reported in ChEMBL document CHEMBL1156829 (Proc Natl Acad Sci U S A, 2008).
Several values for one entry are separate records, joined by “and”; a condition that tells them apart may be missing. Identical values can stand only once. Numbered stars: 1 amine (or outer) side, 2 acyl side, 3 side chain; on linkers, the order of the positions; unused ones are H or OH. Bridge positions count the residues as written; N and C are the ends. Square brackets hold non-standard residues; d marks the D form. Peptide text beside a SMILES is read from it. I, II: the chains in the order shown. Actinocin(1to9) = Cc1c2oc3c(C)ccc(C(=O)[*:2])c3nc-2c(C(=O)[*:1])c(N)c1=O; NMeV = CN[C@H](C(=O)O)C(C)C; Sar = CNCC(=O)O

Legend:
Plasmodium falciparum [1] = experiment: NOVARTIS: Inhibition of Plasmodium falciparum W2 (drug-resistant) proliferation in erythrocyte-based infection assay; assay type: functional, organism-based; settings: read-out: EC50
Huh-7 = experiment: NOVARTIS: Cytotoxicity against human hepatocellular carcinoma cell line (Huh7); assay type: toxicity, cell-based
Plasmodium falciparum [2] = experiment: NOVARTIS: Inhibition of Plasmodium falciparum 3D7 (drug-susceptible) proliferation in erythrocyte-based infection assay; assay type: functional, organism-based

SMILES | EC50 (Plasmodium falciparum [1]) | CC50 (Huh-7; huh-7, read-out: CC50) | EC50 (Plasmodium falciparum [2]) | EC50 (Plasmodium falciparum [1]; Plasmodium falciparum, W2) [nM] | EC50 (Plasmodium falciparum [2]; Plasmodium falciparum, 3D7) [nM] | CC50 (Huh-7; huh-7)
CCCCCC[n+]1ccccc1C=Cc1ccc(N(C)C)cc1 | 211 nM | 2410 nM | 96.1 nM |  |  | 
C[n+]1ccc(C=Cc2ccc(O)cc2)cc1 | 593 nM | > 100000 nM | 1430 nM |  |  | 
Cc1ccc(/C=C2/SC(=Nc3ccccc3)NC2=O)c(C)c1 | 351 nM | > 100000 nM | 468 nM and 232 nM | 455 |  | 
CCN1/C(=C\C=C\c2n(CC)c3ccc(C#N)cc3[n+]2CC)Oc2ccc(-c3ccccc3)cc21 [listing 1 of 2 here] | 1060 nM | > 10000 nM | 610 nM |  |  | 
CCn1c(C=CN(C(C)=O)c2ccccc2)[n+](CC)c2cc(Cl)ccc21 | 1580 nM | > 100000 nM | 2590 nM |  |  | 
CC[n+]1c(C=C2Sc3ccccc3N2CCO)sc2ccccc21 | 511 nM | > 100000 nM | 336 nM |  |  | 
CCN1/C(=C\C=C\c2n(CC)c3ccc(C#N)cc3[n+]2CC)Oc2ccc(-c3ccccc3)cc21 [listing 2 of 2 here] | 6060 nM | > 100000 nM | 3850 nM |  |  | 
CCN1C=C/C(=C\c2cccc[n+]2C)c2ccccc21 | 683 nM and 1960 nM | > 100000 nM | 1030 nM |  | 827 | 
CC[n+]1c(/C=C2\C=Cc3cc(C)ccc3N2C)ccc2cc(C)ccc21 | 961 nM | > 10000 nM and 32100 nM | > 1150 nM and 225 nM | > 1250 |  | 
CCN1/C(=C/C=C/C2=[N+](C)c3ccc(C)cc3C2(C)C)C=Cc2ccccc21 | 860 nM and 184 nM | > 10000 nM and 4990 nM | 861 nM and 158 nM |  |  | 
Cc1[nH]c2ccccc2c1/C=C/c1cc[n+](C)cc1 [listing 1 of 2 here] | 215 nM | > 100000 nM | 175 nM |  |  | 
OCC[n+]1ccc(/C=C/c2c[nH]c3ccccc23)cc1 | 396 nM | > 100000 nM | 343 nM | 554 | 390 | 
CCN1C(=Cc2sc3ccc(Cl)cc3[n+]2CC)C=Cc2cc(OC)ccc21 | 91.8 nM | 11900 nM | 16.7 nM |  |  | 
CCN1/C(=C/C=C/c2sc3ccccc3[n+]2CC)Sc2ccccc21 | 164 nM | 9030 nM | 258 nM |  |  | 
Cc1ccc(-n2c(C)cc(/C=C3\SC(=Nc4ccc(Cl)cc4)NC3=O)c2C)cc1 | 629 nM | > 100000 nM | 512 nM and 194 nM | 611 |  | 
Cc1c2oc3c(C)ccc(C(=O)N[C@@H]4C(=O)N[C@H](C(C)C)C(=O)N5CCC[C@H]5C(=O)N(C)CC(=O)N(C)[C@@H](C(C)C)C(=O)O[C@@H]4C)c3nc-2c(C(=O)N[C@@H]2C(=O)N[C@H](C(C)C)C(=O)N3CCC[C@H]3C(=O)N(C)CC(=O)N(C)[C@@H](C(C)C)C(=O)O[C@@H]2C)c(N)c1=O [DACTINOMYCIN] (I: T[dV]P[Sar][NMeV] / II: T[dV]P[Sar][NMeV]; ester I:1-I:C, II:1-II:C; linker I:N-II:N via Actinocin(1to9)) | 395 nM | 4180 nM and > 10000 nM | 323 nM and 807 nM | 214 |  | 

SMILES | EC50 (Plasmodium falciparum [1]) | CC50 (Huh-7; huh-7, read-out: CC50) | EC50 (Plasmodium falciparum [2]) | EC50 (Plasmodium falciparum [1]; Plasmodium falciparum, W2) [nM] | EC50 (Plasmodium falciparum [2]; Plasmodium falciparum, 3D7) [nM] | CC50 (Huh-7; huh-7)
Cc1occc1C(=O)NN=C/C(Br)=C/c1ccccc1 | 502 nM | > 10000 nM and 47100 nM | 1370 nM and 206 nM | 593 |  | 
COC(=O)C1=CN(Cc2ccc(OC)cc2)C=C(C(=O)OC)C1c1cccc([N+](=O)[O-])c1 |  |  |  | > 1250 | 2120 | No fit
CCN1/C(=C/c2cccc[n+]2C)C=Cc2cc(C)ccc21 | 959 nM | > 100000 nM | 803 nM | 596 | 425 | 
Cc1nn(CC(O)Cn2c3ccc(Cl)cc3c3cc(Cl)ccc32)c(C)c1Br (stereo not given) |  |  |  | 190 | 602 | No fit
CCN1/C(=C/c2[se]c3ccccc3[n+]2CC)C=Cc2cc(OC)ccc21 | 977 nM | 12700 nM | 1590 nM |  |  | 
C[n+]1ccccc1C=Cc1cc(Br)ccc1O | 308 nM | > 100000 nM | 466 nM |  |  | 
CCOc1ccc(Br)cc1/C=C1\SC(=Nc2ccccc2CC)N(c2ccccc2CC)C1=O | > 1250 nM and 4860 nM | > 100000 nM | 8330 nM and > 835 nM |  |  | 
CCN1/C(=C/c2cccc[n+]2C)Sc2ccccc21 | 1070 nM and 2700 nM | > 100000 nM | 4250 nM and 440 nM |  |  | 
CC[n+]1c(C=CC=C2N(C)c3ccccc3C2(C)C)sc2ccccc21.[O-][Cl+3]([O-])([O-])[O-] |  | 1630 nM |  | 177 | 149 | 
CN(C)c1ccc(C=CC=Cc2cccc[n+]2C)cc1 |  | > 10000 nM |  | < 8.47 | 108 | 
CCN1C(=Cc2sc3ccc(OC)cc3[n+]2CC)C=Cc2ccccc21 |  | 9870 nM | 417 nM | 249 |  | 
CCN1C(=Cc2sc3ccccc3[n+]2C)C=Cc2ccc(C)cc21 | 291 nM | 11400 nM | 122 nM |  |  | 
Cc1[nH]c2ccccc2c1/C=C/c1cc[n+](C)cc1 [listing 2 of 2 here] |  | > 10000 nM |  | 116 | 259 | 
Cc1cc(=O)n(-c2nc(-c3ccccc3O)nc3ccccc23)[nH]1 |  |  |  | 752 | 824 | No fit
COc1cc(/C=C2/SC(=Nc3ccccc3)NC2=O)ccc1OCc1ccccc1Cl | 522 nM | > 100000 nM | 692 nM | 494 | 957 | 
